Results as given in ChEMBL document CHEMBL1201862, “PubChem BioAssay data set” (2004).
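Following 48 hours of exposure in 96-well plates, responses at five concentrations were used to interpolate endpoints linearly. GI50 marks 50% less growth.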 Activity calls are given as the source filed them. Cut-off read from the data, not from the text of the source: active = GI50 up to about 1.1 µM and inactive = higher.

Columns and labels:
Assay in all cases: inhibition of tumour cell growth, NCI panel, 48 h
786-0 = test system: 786-0
SF-295 = test system: SF-295
RPMI-8226 = test system: RPMI-8226
HCT-15 = test system: HCT-15
DMS-114 = test system: DMS-114
HCC 2998 = test system: HCC 2998
A498 = test system: A498
OVCAR-3 = test system: OVCAR-3
OVCAR-5 = test system: OVCAR-5
U-251 = test system: U-251
RXF 393 = test system: RXF 393
NCI-H522 = test system: NCI-H522
KM12 = test system: KM12
NCI-H23 = test system: NCI-H23
CCRF-CEM = test system: CCRF-CEM
DLD-1 = test system: DLD-1
M14 = test system: M14
XF498 = test system: XF498
EKVX = test system: EKVX
HOP-62 = test system: HOP-62
SF-539 = test system: SF-539
SNB-78 = test system: SNB-78
OVCAR-4 = test system: OVCAR-4
SN12C = test system: SN12C
SF-268 = test system: SF-268
MOLT-4 = test system: MOLT-4
M19-MEL = test system: M19-MEL
LOX IMVI = test system: LOX IMVI
SK-OV-3 = test system: SK-OV-3
SNB-19 = test system: SNB-19
UACC-62 = test system: UACC-62
Malme-3M = test system: Malme-3M
OVCAR-8 = test system: OVCAR-8
SR = test system: SR
K562 = test system: K562
NCI-H460 = test system: NCI-H460
HCT-116 = test system: HCT-116
TK-10 = test system: TK-10
HT-29 = test system: HT-29
SK-MEL-28 = test system: SK-MEL-28
SNB-75 = test system: SNB-75
KM-20L2 = test system: KM-20L2
LXFL 529 = test system: LXFL 529
UACC-257 = test system: UACC-257
ACHN = test system: ACHN
UO-31 = test system: UO-31
DMS-273 = test system: DMS-273
NCI-H226 = test system: NCI-H226
COLO 205 = test system: COLO 205
SW-620 = test system: SW-620
SK-MEL-2 = test system: SK-MEL-2
HOP-92 = test system: HOP-92
HL-60 = test system: HL-60
CAKI-1 = test system: CAKI-1
IGROV-1 = test system: IGROV-1
A549 = test system: A549
HOP-18 = test system: HOP-18
SK-MEL-5 = test system: SK-MEL-5

Compound: OCC(O)C(OC1OC(CO)C(O)C(O)C1O)c1nn(-c2ccccc2)c2nc3cc(Cl)ccc3nc12 (stereo not given)
- GI50 (786-0): > 100 µM (inactive)
- GI50 (SF-295): > 100 µM (inactive)
- GI50 (RPMI-8226): > 100 µM (inactive)
- GI50 (HCT-15): > 100 µM
- GI50 (DMS-114): > 100 µM (inactive)
- GI50 (HCC 2998): > 100 µM (inactive)
- GI50 (A498): > 100 µM (inactive)
- GI50 (OVCAR-3): > 100 µM (inactive)
- GI50 (OVCAR-5): > 100 µM (inactive)
- GI50 (U-251): > 100 µM (inactive)
- GI50 (RXF 393): > 100 µM (inactive)
- GI50 (NCI-H522): > 100 µM (inactive)
- GI50 (KM12): > 100 µM (inactive)
- GI50 (NCI-H23): > 100 µM (inactive)
- GI50 (CCRF-CEM): > 100 µM (inactive)
- GI50 (DLD-1): > 100 µM (inactive)
- GI50 (M14): > 100 µM (inactive)
- GI50 (XF498): > 100 µM (inactive)
- GI50 (EKVX): > 100 µM (inactive)
- GI50 (HOP-62): > 100 µM (inactive)
- GI50 (SF-539): > 100 µM (inactive)
- GI50 (SNB-78): > 100 µM (inactive)
- GI50 (OVCAR-4): > 100 µM (inactive)
- GI50 (SN12C): > 100 µM (inactive)
- GI50 (SF-268): > 100 µM (inactive)
- GI50 (MOLT-4): > 100 µM (inactive)
- GI50 (M19-MEL): > 100 µM (inactive)
- GI50 (LOX IMVI): > 100 µM (inactive)
- GI50 (SK-OV-3): > 100 µM (inactive)
- GI50 (SNB-19): > 100 µM (inactive)
- GI50 (UACC-62): > 100 µM (inactive)
- GI50 (Malme-3M): > 100 µM (inactive)
- GI50 (OVCAR-8): > 100 µM (inactive)
- GI50 (SR): > 100 µM (inactive)
- GI50 (K562): > 100 µM (inactive)
- GI50 (NCI-H460): > 100 µM (inactive)
- GI50 (HCT-116): > 100 µM (inactive)
- GI50 (TK-10): > 100 µM (inactive)
- GI50 (HT-29): > 100 µM (inactive)
- GI50 (SK-MEL-28): > 100 µM (inactive)
- GI50 (SNB-75): > 100 µM (inactive)
- GI50 (KM-20L2): > 100 µM (inactive)
- GI50 (LXFL 529): > 100 µM (inactive)
- GI50 (UACC-257): > 100 µM (inactive)
- GI50 (ACHN): > 100 µM (inactive)
- GI50 (UO-31): > 100 µM (inactive)

Compound: O=c1oc(=O)c2oc3ccccc3oc1=2
- GI50 (786-0): > 100 µM (inactive)
- GI50 (SF-295): > 100 µM (inactive)
- GI50 (DMS-273): > 100 µM (inactive)
- GI50 (NCI-H226): > 100 µM (inactive)
- GI50 (HCT-15): > 100 µM
- GI50 (DMS-114): > 100 µM (inactive)
- GI50 (HCC 2998): > 100 µM (inactive)
- GI50 (A498): > 100 µM (inactive)
- GI50 (OVCAR-3): > 100 µM (inactive)
- GI50 (COLO 205): > 100 µM (inactive)
- GI50 (OVCAR-5): > 100 µM (inactive)
- GI50 (U-251): > 100 µM (inactive)
- GI50 (RXF 393): > 100 µM (inactive)
- GI50 (NCI-H522): > 100 µM (inactive)
- GI50 (KM12): > 100 µM (inactive)
- GI50 (NCI-H23): > 100 µM (inactive)
- GI50 (CCRF-CEM): > 100 µM (inactive)
- GI50 (DLD-1): > 100 µM (inactive)
- GI50 (M14): > 100 µM (inactive)
- GI50 (SW-620): > 100 µM (inactive)
- GI50 (XF498): > 100 µM (inactive)
- GI50 (EKVX): > 100 µM (inactive)
- GI50 (SK-MEL-2): > 100 µM (inactive)
- GI50 (HOP-92): > 100 µM (inactive)
- GI50 (HOP-62): > 100 µM (inactive)
- GI50 (HL-60): > 100 µM (inactive)
- GI50 (SF-539): > 100 µM (inactive)
- GI50 (OVCAR-4): > 100 µM (inactive)
- GI50 (SN12C): > 100 µM (inactive)
- GI50 (SF-268): > 100 µM (inactive)
- GI50 (MOLT-4): > 100 µM (inactive)
- GI50 (M19-MEL): > 100 µM (inactive)
- GI50 (LOX IMVI): > 100 µM (inactive)
- GI50 (SK-OV-3): > 100 µM (inactive)
- GI50 (SNB-19): > 100 µM (inactive)
- GI50 (UACC-62): > 100 µM (inactive)
- GI50 (Malme-3M): > 100 µM (inactive)
- GI50 (OVCAR-8): > 100 µM (inactive)
- GI50 (CAKI-1): > 100 µM (inactive)
- GI50 (SR): > 100 µM (inactive)
- GI50 (K562): > 100 µM (inactive)
- GI50 (NCI-H460): > 100 µM (inactive)
- GI50 (HCT-116): > 100 µM (inactive)
- GI50 (TK-10): > 100 µM (inactive)
- GI50 (IGROV-1): > 100 µM (inactive)
- GI50 (HT-29): > 100 µM (inactive)
- GI50 (SK-MEL-28): > 100 µM (inactive)
- GI50 (A549): > 100 µM (inactive)
- GI50 (HOP-18): > 100 µM (inactive)
- GI50 (SNB-75): > 100 µM (inactive)
- GI50 (KM-20L2): > 100 µM (inactive)
- GI50 (LXFL 529): > 100 µM (inactive)
- GI50 (UACC-257): > 100 µM (inactive)
- GI50 (ACHN): > 100 µM (inactive)
- GI50 (UO-31): > 100 µM (inactive)

Compound: S=C1OC2C3C4CC5C3C(O1)C1C5C4C21 (stereo not given)
- GI50 (786-0): > 100 µM (inactive)
- GI50 (SF-295): > 100 µM (inactive)
- GI50 (DMS-273): 89.1 µM (inactive)
- GI50 (RPMI-8226): > 100 µM (inactive)
- GI50 (NCI-H226): > 100 µM (inactive)
- GI50 (HCT-15): > 100 µM
- GI50 (DMS-114): 45.6 µM (inactive)
- GI50 (HCC 2998): > 100 µM (inactive)
- GI50 (A498): > 100 µM (inactive)
- GI50 (OVCAR-3): > 100 µM (inactive)
- GI50 (COLO 205): > 100 µM (inactive)
- GI50 (OVCAR-5): > 100 µM (inactive)
- GI50 (U-251): > 100 µM (inactive)
- GI50 (RXF 393): > 100 µM (inactive)
- GI50 (NCI-H522): > 100 µM (inactive)
- GI50 (KM12): > 100 µM (inactive)
- GI50 (CCRF-CEM): > 100 µM (inactive)
- GI50 (DLD-1): > 100 µM (inactive)
- GI50 (M14): > 100 µM (inactive)
- GI50 (SW-620): > 100 µM (inactive)
- GI50 (EKVX): > 100 µM (inactive)
- GI50 (HOP-92): > 100 µM (inactive)
- GI50 (HOP-62): > 100 µM (inactive)
- GI50 (HL-60): > 100 µM (inactive)
- GI50 (SF-539): > 100 µM (inactive)
- GI50 (SNB-78): > 100 µM (inactive)
- GI50 (OVCAR-4): > 100 µM (inactive)
- GI50 (SN12C): > 100 µM (inactive)
- GI50 (SF-268): > 100 µM (inactive)
- GI50 (MOLT-4): > 100 µM (inactive)
- GI50 (M19-MEL): > 100 µM (inactive)
- GI50 (LOX IMVI): 74 µM (inactive)
- GI50 (SK-OV-3): > 100 µM (inactive)
- GI50 (SNB-19): > 100 µM (inactive)
- GI50 (UACC-62): > 100 µM (inactive)
- GI50 (Malme-3M): > 100 µM (inactive)
- GI50 (OVCAR-8): > 100 µM (inactive)
- GI50 (CAKI-1): > 100 µM (inactive)
- GI50 (SR): > 100 µM (inactive)
- GI50 (NCI-H460): 58.5 µM (inactive)
- GI50 (HCT-116): 45.2 µM (inactive)
- GI50 (TK-10): > 100 µM (inactive)
- GI50 (IGROV-1): > 100 µM (inactive)
- GI50 (HT-29): > 100 µM (inactive)
- GI50 (SK-MEL-28): > 100 µM (inactive)
- GI50 (A549): > 100 µM (inactive)
- GI50 (SK-MEL-5): > 100 µM (inactive)
- GI50 (HOP-18): > 100 µM (inactive)
- GI50 (SNB-75): > 100 µM (inactive)
- GI50 (KM-20L2): > 100 µM (inactive)
- GI50 (LXFL 529): > 100 µM (inactive)
- GI50 (UACC-257): > 100 µM (inactive)
- GI50 (ACHN): > 100 µM (inactive)
- GI50 (UO-31): > 100 µM (inactive)
